Laboratory results published in US9040713B2, “Methods of managing blood sugar levels and compositions related thereto” (EMORY UNIVERSITY, priority 2010, dated 2015).

Legend:
[1] = tested on: 3T3-L1 adipocytes; experiment: [3H] 2-deoxyglucose transport in 3T3-L1 adipocytes; assay type: cell-based, mouse; settings: for glucose uptake after depletion of IR: siRNA against IR
Procedure: NIH 3T3-L1 preadipocytes and MEFs were grown in standard media. MEF were continuously passed in standard media to generate spontaneously immortalizedfibroblasts. […] 3T3-L1 adipocytes were reseeded into 12-well plates 10 to 12 days after differentiation. […] The transport reaction was initiated by adding 2-deoxyglucose (final 100 uM) with [3H] 2-deoxyglucose (0.2 μCi/well). After a 10 min incubation period, cells were washed three times with ice-cold PBS, solubilized in 1% SDS, 1M NaOH. After neutralization, radioactivity was measured by scintillation counting

[2] = tested on: wild-type MEF cells; experiment: [3H] 2-deoxyglucose transport in wild-type MEF cells; assay type: cell-based, mouse; settings: insulin 100 nM 15 min or compound 5 μM 30 min
Procedure: (§1) Insulin signaling in the cell lysates were tested by immunoblotting. (B) DDN stimulates glucose uptake. […] [3H]2-deoxyglucose was then added, and the cells were further incubated for 10 min. [3H]2-deoxyglucose uptake by adipocytes was measured by scintillation counting (*: P<0.05 **: P<0.01 vs control, Student's t-test, n=3). (C) DDN synergizes insulin's signaling. […] Cell lysates were then prepared for Western blot using specific antibodies as indicated. […] 3H-2-deoxyglucose was then added, and the cells were further incubated for 10 min. 3H-2-deoxyglucose uptake by adipocytes was measured by scintillation counting (*: P<0.05; **: P<0.01, Student's t-test, n=3). (E) IR is necessary for DDN to induce ERK phosphorylation. Differentiated 3T3-L1 adipocytes were transfected with control siRNA or siRNA against IR. […] Cell lysates were analyzed by Western blot. (F) The glucose uptake induced by DDN in p85α knockout MEF cells. […] The uptake of 3H-2-deoxyglucose was monitored by liquid scintillation counting (*: P<0.05; **: P<0.01 vs control, Student's t-test, n=3).
(A) 4524-E7 activates IR phosphorylation and its downstream signaling in 3T3-L1 adipocytes. […] The cells were lysed, and immunoprecipitated with PY20, and followed by Western blot using specific antibodies. (B) 4524-E7 stimulates glucose uptake in 3T3-L1 adipocytes. […] [3H]2-deoxyglucose was added, and the cells were further incubated for 10 min. The amount of [3H]2-deoxyglucose taken by adipocytes was measured. (C) 4524-E7 inhibits fatty acid oxidation. […] Results were normalized to DMSO-treated cells and expressed as mean±S.E.M. (*: P<0.05; **:P<0.01, Student's t-test, n=3). (D) IR knockdown in adipocytes decreases IR signaling by 4524-E7. […] Cells lysates were collected and analyzed by Western blot. […] 2-deoxyglucose was monitored by liquid scintillation counter. Results were expressed as mean±S.E.M. (*: P<0.05; **:P<0.01, Student's t-test, n=3).
NIH 3T3-L1 preadipocytes and MEFs were grown in standard media. […] After neutralization, radioactivity was measured by scintillation counting

[3] = target: IR (Mus musculus, UniProt P15208); experiment: IR signaling in differentiated 3T3-L1 adipocytes (immunoblotting); assay type: cell-based; design: endogenous in cells; host or cells: differentiated 3T3-L1 adipocytes; settings: for IR phosphorylation: 5 nM; for ERK phosphorylation after IR knockdown / Akt and ERK phosphorylation after IR knockdown: siRNA against IR; for ERK phosphorylation after IR knockdown: insulin 100 nM 15 min or DDN 5 μM 30 min; for Akt and ERK phosphorylation after IR knockdown: 5 μM 4524-E7 or insulin 100 nM
Procedure: as §1
(A) 4524-E7 activates IR phosphorylation and its downstream signaling in 3T3-L1 adipocytes. […] The cells were lysed, and immunoprecipitated with PY20, and followed by Western blot using specific antibodies. (B) 4524-E7 stimulates glucose uptake in 3T3-L1 adipocytes. […] [3H]2-deoxyglucose was added, and the cells were further incubated for 10 min. The amount of [3H]2-deoxyglucose taken by adipocytes was measured. (C) 4524-E7 inhibits fatty acid oxidation. […] Results were normalized to DMSO-treated cells and expressed as mean±S.E.M. (*: P<0.05; **:P<0.01, Student's t-test, n=3). (D) IR knockdown in adipocytes decreases IR signaling by 4524-E7. […] Cells lysates were collected and analyzed by Western blot. (E) The glucose uptake induced by 4524-E7 in p85α knockout MEF cells. […] The uptaken [3H] 2-deoxyglucose was monitored by liquid scintillation counter. Results were expressed as mean±S.E.M. (*: P<0.05; **:P<0.01, Student's t-test, n=3). […]

[4] = tested on: C57BL/6J mice; experiment: Blood glucose level test in C57BL/6J mice; assay type: in vivo, mouse; settings: for time until decrease of blood glucose: DDN 20 mg/kg oral, insulin 1 U/kg i.p.
Procedure: (A) DDN reduces blood glucose in C57BL/6J mice. […] Blood glucose was monitored before and after dosing at various time points as indicated (*: P<0.05, **: P<0.01; ***: P<0.001, n=10-13, Two-way ANOVA vs vehicle). (B) DDN provokes IR phosphorylation and its downstream signaling in C57BL/6J mice. Three month-old C57BL/6J mice were starved for 12 h and then orally administrated with vehicle (0.5% methylcellulose), DDN (20 mg/kg) or 2NH2-NQ (20 mg/kg). Cell lysates were prepared from liver and muscle tissues collected at 3, 4, and 5 h after drug administration and analyzed by immunoprecipitation and immunoblotting. (C) DDN quickly activates IR phosphorylation and its downstream signaling. Three-month-old C57BL/6J mice were starved for 12 h and then injected with vehicle, 5 mg/kg DDN or 5 mg/kg 2NH2-NQ through vena cava. After 5 min, the liver was collected and analyzed by immunobloting using specific antibodies.
(A) 4524-E7 provokes IR phosphorylation in various tissues of mice. Three-month-old C57BL/6J mice were starved for 12 h and then dosed with vehicle (0.5% methylcellulose) or 4524-E7 (20 mg/kg). Cell lysates from liver, muscle, and WAT were prepared at 3, 4, and 5 h after drug administration and analyzed by immunoblotting. (B) Basal and insulin-stimulated hepatic glucose production rates were measured by hyperinsulinemic-euglycemic clamp. […] (C) Hypoglycemic effect of 4524-E7 in C57BL/6J mice. C57BL/6J mice were starved for 12 h and then orally administrated with vehicle (0.5% methylcellulose) or 4524-E7 (5 mg/kg). Blood glucose was monitored at different time points as indicated (n=8, *: P<0.05, two-way ANOVA). (D) Hypoglycemic effect in db/db mice. db/db mice were starved for 12 h and then orally injected with vehicle (0.5% methylcellulose) or 4524-E7 (5 mg/kg). Blood glucose was monitored at different time points as indicated (n=5, *: P<0.05, two-way ANOVA). (E) Glucose tolerance test in ob/ob mice. The mice were starved for 12 hours and then orally administrated with vehicle or 4524-E7 (5 mg/kg). A bonus of glucose (2 gm/kg) was injected intraperitoneally 1 hour later. Blood glucose was then measured at 30 min intervals (n=13, *: P<0.05; **: P<0.01, two-way ANOVA).
After a 12 h fasting, C57B5L/6J and db/db mice were bled from the tail vein for a baseline measurement with a glucometer (Accu-Chek; Roche Diagnostics, Indianapolis, Ind.). Afterward, animals were orally administered 5 mg/kg compound in 0.5% methylcellulose through a feeding needle. Blood glucose levels were measured at hourly intervals over 5 h.

IR, sequence (P15208 28-1372): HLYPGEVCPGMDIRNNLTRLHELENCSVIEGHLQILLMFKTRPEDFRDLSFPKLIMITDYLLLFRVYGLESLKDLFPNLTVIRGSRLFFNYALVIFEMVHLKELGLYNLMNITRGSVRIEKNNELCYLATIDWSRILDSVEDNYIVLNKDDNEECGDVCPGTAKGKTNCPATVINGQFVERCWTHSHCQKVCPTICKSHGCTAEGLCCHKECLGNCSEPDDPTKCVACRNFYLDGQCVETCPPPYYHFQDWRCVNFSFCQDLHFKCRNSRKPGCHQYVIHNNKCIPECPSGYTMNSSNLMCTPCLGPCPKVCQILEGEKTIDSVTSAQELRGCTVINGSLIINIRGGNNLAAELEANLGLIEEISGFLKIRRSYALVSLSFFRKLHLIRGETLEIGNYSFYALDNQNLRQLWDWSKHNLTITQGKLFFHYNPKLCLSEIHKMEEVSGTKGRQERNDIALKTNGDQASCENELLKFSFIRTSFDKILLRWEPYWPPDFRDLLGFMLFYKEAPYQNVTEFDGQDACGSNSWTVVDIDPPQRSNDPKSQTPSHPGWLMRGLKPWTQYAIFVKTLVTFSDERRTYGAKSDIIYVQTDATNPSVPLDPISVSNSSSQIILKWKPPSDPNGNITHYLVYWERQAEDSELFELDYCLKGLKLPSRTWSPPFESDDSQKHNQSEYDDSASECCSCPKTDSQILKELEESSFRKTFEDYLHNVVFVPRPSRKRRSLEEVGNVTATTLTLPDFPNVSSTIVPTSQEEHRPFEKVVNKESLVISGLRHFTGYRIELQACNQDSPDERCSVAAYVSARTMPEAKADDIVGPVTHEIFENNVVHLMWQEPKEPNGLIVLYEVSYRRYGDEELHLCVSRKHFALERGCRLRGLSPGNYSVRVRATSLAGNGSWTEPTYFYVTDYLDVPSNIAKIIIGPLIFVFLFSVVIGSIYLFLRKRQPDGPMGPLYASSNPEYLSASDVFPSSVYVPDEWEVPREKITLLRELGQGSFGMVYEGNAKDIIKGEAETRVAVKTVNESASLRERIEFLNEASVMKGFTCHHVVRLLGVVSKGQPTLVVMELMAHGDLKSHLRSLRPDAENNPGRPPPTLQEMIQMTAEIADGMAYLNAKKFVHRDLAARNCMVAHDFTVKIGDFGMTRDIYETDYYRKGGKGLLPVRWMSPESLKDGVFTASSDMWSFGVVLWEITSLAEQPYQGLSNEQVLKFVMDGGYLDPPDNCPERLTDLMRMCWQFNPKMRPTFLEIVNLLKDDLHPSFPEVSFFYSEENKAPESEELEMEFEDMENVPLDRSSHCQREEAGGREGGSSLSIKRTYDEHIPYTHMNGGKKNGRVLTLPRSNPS

Row | IR phosphorylation ([3]; alone) | ERK phosphorylation after IR knockdown [3] | activation of endogenous IR ([3]; different concentrations, 15 min, alone) | Akt and ERK phosphorylation after IR knockdown [3] | Molecule | glucose uptake in combination with insulin ([1]; 5 nM DDN plus 5 nM insulin) | 3H-deoxyglucose uptake ([1]; DDN 0.1, 0.25, 0.5 μM, 30 min) | [3H]-2-deoxyglucose uptake [2] | IR phosphorylation in combination with insulin ([3]; 5 nM DDN plus 5 nM insulin) | IR and Akt activation ([3]; DDN 0.1, 0.25, 0.5 μM, 30 min) | blood glucose as compared to vehicle control ([4]; 20 mg/kg oral, 12 h starved) | time until decrease of blood glucose [4] | glucose uptake as compared to control ([1]; 5 μM, 30 min) | lowest concentration significantly elevating glucose uptake ([1]; 30 min) | glucose uptake in combination with insulin ([1]; 4524-E7 plus 10 nM insulin, versus the two agents alone) | glucose uptake after depletion of IR [1] | IR, Akt and Erk1/2 phosphorylation in combination with insulin ([3]; 4524-E7 plus 10 nM insulin) | blood glucose ([4]; 5 mg/kg single oral administration, 3˜4 h after) | 3H-deoxyglucose uptake ([1]; 5 nM, alone)
1 | did not induce any IR activation | reduced when IR was depleted | – | – | CC(=O)Oc1ccc(OC(C)=O)c2c1C(=O)C(Cl)=C(Cl)C2=O [DDN, 5,8-diacetyloxy-2,3-dichloro-1,4-naphthoquinone] | further increased | escalated 3H-deoxyglucose uptake in a dose-dependent manner | triggered robust 3H-deoxyglucose uptake | higher than those observed when insulin or DDN was administrated separately | elicited a dose-dependent IR and Akt activation | significantly reduced blood glucose | 3 h | – | – | – | – | – | – | –
2 | – | – | could activate the endogenous IR | also reduced | O=C1c2ccccc2C(=O)C2SC(Nc3ccc(Cl)cc3)=NC12 (stereo not shown) [4524-E7, 2-((4-chlorophenyl)amino)naphtho[2,3-d]thiazole-4,9(3aH,9aH)-dione] | – | – | triggered robust [3H]-2-deoxyglucose uptake | – | – | – | – | nearly quadrupled | 1 µM | additively escalated | substantially diminished | much more robust IR, Akt and Erk1/2 phosphorylation than insulin or 4524-E7 alone | 70 % of basal level | –
3 | able to trigger IR phosphorylation | reduced when IR was depleted | – | also reduced | insulin: insulin, used as positive control | – | – | triggered robust [3H]-2-deoxyglucose uptake | – | – | – | Thirty min | – | – | – | substantially diminished | – | – | significantly increased
